Experiments:
[1] = molecular target: Melatonin receptor (Gallus gallus, UniProt P49288+P51050+P49285); assay: Binding affinity towards melatonin receptor, determined in chicken brain membranes using [2-125I]melatonin; type: cell membranes, Membrane
[2] = system: Melanophore; assay: Effective concentration required to produce 50% of the maximal pigment aggregation in Xenopus laevis dermal melanophore cell line; No agonist effect detected at 100 uM; type: functional, cell-based, frog
[3] = system: Melanophore; assay: Inhibitory concentration against melatonin-induced pigment aggregation by 50% in Xenopus laevis dermal melanophore cell line; type: functional, cell-based, frog
[4] = system: Melanophore; assay: Effective concentration required to produce 50% of the maximal pigment aggregation in Xenopus laevis dermal melanophore cell line; type: functional, cell-based, frog
[5] = system: Melanophore; assay: Inhibitory concentration against melatonin-induced pigment aggregation by 50% in Xenopus laevis dermal melanophore cell line; Antagonism detected at 100 uM but IC50 not calculated; type: functional, cell-based, frog

SMILES	Ki [1]	EC50 [2]	IC50 [3]	EC50 ([4]; Xenopus laevis, Melanophore)	EC50 ([4]; melanophore)	IC50 [5]
CCCCC(=O)NCC1CCc2c1c1ccccc1n2C (stereo unspecified)	> 10000 nM	Not Active	46 µM	–	–	–
Cn1c2c(c3cc(Cl)ccc31)C(CNC(=O)C1CCC1)CCC2 (stereo unspecified)	187.2 nM	Not Active	14 µM	–	–	–
CCCCC(=O)NCC1CCCCc2c1c1cc(OC)ccc1n2C (stereo unspecified)	471 nM	Not Active	39 µM	–	–	–
Cn1c2c(c3ccccc31)C(CNC(=O)C1CC1)CC2 (stereo unspecified)	5100 nM	Not Active	59 µM	–	–	–
CC(=O)NCC1CCCCc2c1c1ccccc1n2C (stereo unspecified)	424 nM	Not Active	54 µM	–	–	–
CCCC(=O)NCC1CCCc2c1c1ccccc1n2C (stereo unspecified)	215 nM	–	Not Active	966 nM	–	–
COc1ccc2c(c1)c1c(n2C)CCC1CNC(C)=O (stereo unspecified)	161 nM	–	Not Active	423 nM	–	–
Cn1c2c(c3ccccc31)C(CNC(=O)C1CC1)CCCC2 (stereo unspecified)	1220 nM	Not Active	56 µM	–	–	–
COc1ccc2c(c1)c1c(n2C)CCCC1CNC(=O)C(F)(F)F (stereo unspecified)	1.98 nM	–	Not Active	2.1 nM	–	–
COc1ccc2[nH]c3c(c2c1)CC(NC(=O)CBr)CC3 (stereo unspecified)	–	–	11 µM	32 nM	–	–
CCCC(=O)NC1CCc2[nH]c3ccccc3c2C1 (stereo unspecified)	–	–	Not Active	12600 nM	–	–
CCC(Br)C(=O)NC1CCc2[nH]c3ccccc3c2C1 (stereo unspecified)	> 10000 nM	Not Active	32 µM	–	–	–
COc1ccc2[nH]c3c(c2c1)CC(NC(C)=O)CC3 (stereo unspecified)	–	–	Not Active	32 nM	–	–
CCC(=O)NC1CCc2[nH]c3ccccc3c2C1 (stereo unspecified)	–	–	Not Active	3270 nM	–	–
COc1ccc2[nH]c3c(c2c1)CC(NC(=O)C(F)(F)F)CC3 (stereo unspecified)	–	–	Not Active	32 nM	–	–
CC(=O)NC1CCc2[nH]c3ccccc3c2C1 (stereo unspecified)	–	Not Active	64 µM	–	–	–
Cn1c2c(c3ccccc31)C(CNC(=O)C(F)(F)F)CCC2 (stereo unspecified)	> 10000 nM	Not Active	35 µM	–	–	–
COc1ccc2c(c1)c1c(n2C)CCCC1CNC(=O)C1CC1 (stereo unspecified)	30 nM	–	48 µM	119 nM	–	–

SMILES	Ki [1]	EC50 [2]	IC50 [3]	EC50 ([4]; Xenopus laevis, Melanophore)	EC50 ([4]; melanophore)	IC50 [5]
CCCC(=O)NCC1CCCCc2c1c1ccccc1n2C (stereo unspecified)	84 nM	Not Active	53 µM	–	–	–
Cn1c2c(c3ccccc31)C(CNC(=O)C(F)(F)F)CC2 (stereo unspecified)	> 10000 nM	Not Active	Not Active	–	–	–
O=C(NCCc1c(-c2ccccc2)[nH]c2ccccc12)C1CCC1	565 nM	Not Active	3.4 µM	–	–	–
CC(=O)NCC1CCCc2c1c1ccccc1n2C (single isomer, unassigned; (+))	708 nM	Not Active	6.4 µM	–	–	–
CCC(=O)NCC1CCc2c1c1cc(OC)ccc1n2C (single isomer, unassigned; (+))	243 nM	–	Not Active	–	789 nM	–
CCC(=O)NCC1CCCCc2c1c1cc(OC)ccc1n2C (single isomer, unassigned; (+))	201.5 nM	Not Active	Not Active	–	–	–
COc1ccc2c(c1)c1c(n2C)CCCC1CNC(C)=O (single isomer, unassigned; (+))	48.4 nM	–	–	–	14.8 nM	–
CC(=O)NCC1CCCc2c1c1ccccc1n2C (single isomer, unassigned; (-))	40 nM	–	–	–	189 nM	–
CCC(=O)NCC1CCc2c1c1cc(OC)ccc1n2C (single isomer, unassigned; (-))	1.7 nM	–	–	–	3.4 nM	–
COc1ccc2c(c1)c1c(n2C)CCCC1CNC(C)=O (single isomer, unassigned; (-))	0.372 nM	–	–	–	0.3 nM	–
CC(=O)NCC1CCCc2c1c1ccccc1n2C (stereo in doubt; 9a)	227 nM	–	Not Active	–	599 nM	–
COc1ccc2c(c1)c1c(n2C)CCCC1CNC(C)=O (stereo in doubt; 9g)	–	–	Not Active	–	0.7 nM	–
CCC(=O)NCC1CCc2c1c1cc(OC)ccc1n2C (stereo in doubt; 10i)	16 nM	–	–	–	408 nM	–
CCC(=O)NCC1CCCCc2c1c1cc(OC)ccc1n2C (stereo in doubt; 11i(-))	6.5 nM	–	–	–	118 nM	–
CCC(=O)NCC1CCCCc2c1c1cc(OC)ccc1n2C (stereo in doubt; 11i)	7 nM	–	–	91 nM	–	Antagonist
CC(=O)NCCc1c(Cc2ccccc2)[nH]c2ccccc12 [LUZINDOLE]	1606 nM	Not Active	2.1 µM	–	–	–
COc1ccc2[nH]cc(CCNC(C)=O)c2c1 [MELATONIN]	–	–	Not Active	0.23 nM	–	–
